For experiment [1], the system named is recombinant rabies virus 1088 strain expressing Gaussia Luciferase (GLuc) (1088/GLuc). It is filed as cell-based.
The next experiment deals with rabies virus. Conditions: mouse, in vivo; cited from earlier work.

Like-named read-outs stand apart in the source and are kept apart here.

As to `NC(=O)c1nc(F)c[nH]c1=O` [Compound T-705, Favipiravir], in experiment [1] (read-out: anti-rabies virus activity IC50), the IC50 is 30 µM. In addition, the “prophylactic effect on rabies virus” value in the experiment on rabies virus is “significant prophylactic effect was confirmed”.
As to `Cc1ccc(CN2C[C@H]3C[C@@]4(C(=O)NCc5ccccc5)[C@H](CC(C)C)[C@@H]2[C@@H]3CN4C(=O)Cc2ccccc2)cc1` [IF-859], the IC50 in experiment [1] (read-out: Anti-rabies activity) is 5 to 10 µM.
Same read-out and setting: under `COC(=O)N1C[C@@H]2[C@H]3CN(Cc4ccc(C)cc4)[C@@H]2[C@@H](CC(C)C)[C@]1(C(=O)NCc1ccccc1)C3` [IF-860] stands 10 to 30 µM.
Same read-out and setting: for `Cc1ccc(CN2C[C@H]3C[C@@]4(C(=O)NCc5ccccc5)[C@H](CC(C)C)[C@@H]2[C@@H]3CN4C(=O)OCC(C)C)cc1` [IF-861] the value was 5 to 10 µM; for `Cc1ccc(CN2C[C@H]3C[C@@]4(C(=O)NCc5ccccc5)[C@H](CC(C)C)[C@@H]2[C@@H]3CN4C(=O)OCc2ccccc2)cc1` [IF-862], 5 to 10 µM; for `Cc1ccc(CN2C[C@H]3C[C@@]4(C(=O)NCc5ccccc5)[C@H](CC(C)C)[C@@H]2[C@@H]3CN4C(=O)NCc2ccccc2)cc1` [IF-864], 10 to 30 µM.
Same read-out and setting: for `CC(C)C[C@@H]1[C@@H]2[C@@H]3CN[C@@]1(C(=O)NCc1cccc(O)c1)C[C@@H]3CN2Cc1ccc(N(C)C)cc1` [IF-866] the value was 10 to 30 µM.
In the case of `CC(C)C[C@@H]1[C@@H]2[C@@H]3CN[C@@]1(C(=O)NCc1ccc(O)cc1)C[C@@H]3CN2Cc1ccc(N(C)C)cc1` [IF-867], the IC50 in experiment [1] (read-out: Anti-rabies activity) fell in the range of 10 to 30 µM.
With `CC(C)CC1C2C=NC3(C(=O)NCc4ccccc4)C(C2)CN(Cc2ccc(Cl)cc2)C13` (stereo not drawn) [IIB-83], in experiment [1] (read-out: Anti-rabies activity), the IC50 was less than 5 µM.
Same read-out and setting: under `CC(C)CC1C2C=NC3(C(=O)NCc4ccccc4)C(C2)CN(Cc2cccc(Cl)c2)C13` (stereo not drawn) [IIB-84] stands less than 5 µM; under `COc1ccc(CN2CC3CC4C=NC3(C(=O)NCc3ccccc3)C2C4CC(C)C)cc1` (stereo not drawn) [IIB-85], 5 to 10 µM; under `Cc1ccc(CN2CC3CC4C=NC3(C(=O)NCc3ccccc3)C2C4CC(C)C)cc1` (stereo not drawn) [IIB-86], 5 to 10 µM.
The same measure, in the same setting: under `CC(C)CC1C2C=NC3(C(=O)NCc4ccccc4)C(C2)CN(Cc2ccc(N(C)C)cc2)C13` (stereo not drawn) [IIB-94] stands 5 to 10 µM.
Same read-out and setting: for `CC(C)CC1C2C=NC3(C(=O)NCc4ccccc4)C(C2)CN(Cc2ccc(C(C)(C)C)cc2)C13` (stereo not drawn) [IIB-95] the value was 5 to 10 µM; for `CC(C)CC1C2C=NC3(C(=O)NCc4ccccc4)C(C2)CN(Cc2ccc(OC(F)(F)F)cc2)C13` (stereo not drawn) [IIB-96], 5 to 10 µM; for `CCOc1ccc(CN2CC3CC4C=NC3(C(=O)NCc3ccccc3)C2C4CC(C)C)cc1` (stereo not drawn) [IIB-97], 10 to 30 µM.
For `CC(C)CCC1C2C=NC3(C(=O)NCc4ccccc4)C(C2)CN(Cc2ccc(O)cc2)C13` (stereo not drawn) [IIB-101], the IC50 in experiment [1] (read-out: Anti-rabies activity) lay in the range of 5 to 10 µM.
`CC(C)CC1C2C=NC3(C(=O)NCc4ccc5ccccc5c4)C(C2)CN(Cc2ccccc2)C13` (stereo not drawn) [IIB-102]: the IC50 in experiment [1] (read-out: Anti-rabies activity) is less than 5 µM.
For `CC(C)CCN1CC2CC3C=NC2(C(=O)NCc2ccc(Cl)cc2)C1C3CC(C)C` (stereo not drawn) [IIB-103], the IC50 in experiment [1] (read-out: Anti-rabies activity) lay within 5 to 10 µM.
As to `CC(C)CCN1CC2CC3C=NC2(C(=O)NCc2ccc(F)cc2)C1C3CC(C)C` (stereo not drawn) [IIB-104], the IC50 in experiment [1] (read-out: Anti-rabies activity) lay within 5 to 10 µM.
On the same count and under the same terms, under `CC(C)CC1C2C3C=NC1(C(=O)NCc1ccccc1)CC3CN2Cc1ccc(Cl)cc1` (stereo not drawn) [IIF-83] stands less than 5 µM; under `CC(C)CC1C2C3C=NC1(C(=O)NCc1ccccc1)CC3CN2Cc1cccc(Cl)c1` (stereo not drawn) [IIF-84], 5 to 10 µM; under `COc1ccc(CN2CC3CC4(C(=O)NCc5ccccc5)N=CC3C2C4CC(C)C)cc1` (stereo not drawn) [IIF-85], 5 to 10 µM.
The same measure, in the same setting: under `Cc1ccc(CN2CC3CC4(C(=O)NCc5ccccc5)N=CC3C2C4CC(C)C)cc1` (stereo not drawn) [IIF-86] stands less than 5 µM.
The same measure, in the same setting: under `CC(C)CC1C2C3C=NC1(C(=O)NCc1ccccc1)CC3CN2Cc1ccc(N(C)C)cc1` (stereo not drawn) [IIF-94] stands 5 to 10 µM.
`CC(C)CC1C2C3C=NC1(C(=O)NCc1ccccc1)CC3CN2Cc1ccc(C(C)(C)C)cc1` (stereo not drawn) [IIF-95]: the IC50 in experiment [1] (read-out: Anti-rabies activity) is less than 5 µM.
`CC(C)CC1C2C3C=NC1(C(=O)NCc1ccccc1)CC3CN2Cc1ccc(OC(F)(F)F)cc1` (stereo not drawn) [IIF-96]: in experiment [1] (read-out: Anti-rabies activity), the IC50 lay in the range of 5 to 10 µM.
Consider `CCOc1ccc(CN2CC3CC4(C(=O)NCc5ccccc5)N=CC3C2C4CC(C)C)cc1` (stereo not drawn) [IIF-97], for which, in experiment [1] (read-out: Anti-rabies activity), the IC50 is 10 to 30 µM.
The same measure, in the same setting: under `CC(C)CCC1C2C3C=NC1(C(=O)NCc1ccccc1)CC3CN2Cc1ccc(O)cc1` (stereo not drawn) [IIF-101] stands 5 to 10 µM; under `CC(C)CC1C2C3C=NC1(C(=O)NCc1ccc4ccccc4c1)CC3CN2Cc1ccccc1` (stereo not drawn) [IIF-102], less than 5 µM.
On the same count and under the same terms, for `CC(C)CCN1CC2CC3(C(=O)NCc4ccc(Cl)cc4)N=CC2C1C3CC(C)C` (stereo not drawn) [IIF-103] the value was 5 to 10 µM.
Same read-out and setting: under `CC(C)CCN1CC2CC3(C(=O)NCc4ccc(F)cc4)N=CC2C1C3CC(C)C` (stereo not drawn) [IIF-104] stands 5 to 10 µM.

The record behind these values is patent US11780841B2, “3,6-methano-1H-pyrrolo[3,2-b]pyridine and 3,6-methano-1H-pyrrolo[3,2-c]pyridine compounds and medicaments using same” (priority 2018, dated 2023).
